Laboratory results from US10767187B2 (The State of Israel, Ministry of Agriculture & Rural …, priority 2016, dated 2020).

Experiments:
MdPh-4′-OGT [1] = target: T1, MdPh-4′-OGT (Malus domestica, UniProt A7MAS5); assay: Substrate specificity, sugar donor and cation dependence of purified recombinant MdPh-4′-OGT; assay type: biochemical, Malus x domestica; details: 50 μM substrate, 2 mM UDP-glucose, 500 ng enzyme, 1 hour, pH 7.5; LC-MS
T1 construct: made in house; host or cells: E. coli BL21 (DE3)
T1 sequence (A7MAS5 1-481): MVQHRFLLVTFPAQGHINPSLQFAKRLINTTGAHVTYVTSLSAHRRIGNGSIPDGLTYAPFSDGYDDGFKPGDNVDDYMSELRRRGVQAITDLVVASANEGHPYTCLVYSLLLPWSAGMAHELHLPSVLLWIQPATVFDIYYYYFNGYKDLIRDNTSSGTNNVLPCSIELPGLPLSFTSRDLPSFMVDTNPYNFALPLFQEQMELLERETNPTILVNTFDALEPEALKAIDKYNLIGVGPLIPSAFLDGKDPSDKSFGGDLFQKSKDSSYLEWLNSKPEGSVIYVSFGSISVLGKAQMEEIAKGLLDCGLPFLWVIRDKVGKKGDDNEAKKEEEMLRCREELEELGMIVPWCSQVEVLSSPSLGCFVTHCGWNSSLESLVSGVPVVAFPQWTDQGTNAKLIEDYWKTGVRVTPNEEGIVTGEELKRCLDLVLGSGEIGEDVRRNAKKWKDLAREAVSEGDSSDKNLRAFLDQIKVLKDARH
Procedure: Substrates analyzed are indicated.
(§1) Reactions were performed at 30° C. for 60 minutes and terminated by addition of 10 μL of 10% TCA (v/v). Two microliters of the reaction products were used for analysis and identification by LC-UV-MS. All assay series were carried out at least in triplicate.
The analytical column was a Zorbax Extend-C18 Rapid Resolution HT column (2.1×50.0 mm, 1.8 μm, Agilent Technologies, Waldbronn, Germany). The gradient elution mobile phase consisted of H2O with 0.1% (v/v) formic acid (eluent A) and acetonitrile containing 0.1% (v/v) formic acid (eluent B). The column was equilibrated with 10% B for 1.5 minutes. […] The flow rate of the mobile phase was 0.3 ml/min and the column oven temperature was 40° C. Eluting compounds were subjected to a dual-sprayer orthogonal ESI source, with one sprayer for analytical flow and one for the reference compound (Agilent Technologies, Santa Clara, USA). The ESI source was operated in negative mode with the following settings: gas temp of 300° C. with a flow of 8 L/min and nebulizer set to 35 psig. VCap set to 3000 V, the fragmentor to −140 V and the skimmer to 65 V. Scan mode of the mass detector was applied (100-1700 m/z) with a rate of 1 spectra/sec. The [M-H] ions of target compounds were detected using the ‘find compound by formula’ function and analyzed by Masshunter qualitative and quantitative analysis software version B.07.00 (Agilent technologies). Compounds were identified by comparison of exact mass and retention time to purchased standards.

Malus Ph-2′-OGT = assay: Km for phloretin of Malus Ph-2′-OGT (literature) compared with MdPh-4′-OGT; assay type: biochemical; details: Gosch C. et al. (2010)
MdPh-4′-OGT [2] = target: T1, MdPh-4′-OGT; assay: Kinetic parameters of His-tag purified recombinant MdPh-4′-OGT (standard glucosyltransferase enzyme assay, LC-MS); assay type: biochemical, Malus x domestica
Procedure: as §1
The UPLC-MS analysis was carried out on an Agilent 1290 Infinity series liquid chromatograph coupled with an Agilent 1290 Infinity DAD and Agilent 6224 Accurate Mass Time of Flight mass spectrometer (MS) (Agilent Technologies, Santa Clara, USA). The analytical column was a Zorbax Extend-C18 Rapid Resolution HT column (2.1×50.0 mm, 1.8 μm, Agilent Technologies, Waldbronn, Germany). The gradient elution mobile phase consisted of H2O with 0.1% (v/v) formic acid (eluent A) and acetonitrile containing 0.1% (v/v) formic acid (eluent B). The column was equilibrated with 10% B for 1.5 minutes. Eluent B was then increased to 95% till 12 minutes, and restored to 10% by 15 minutes. The flow rate of the mobile phase was 0.3 ml/min and the column oven temperature was 40° C. Eluting compounds were subjected to a dual-sprayer orthogonal ESI source, with one sprayer for analytical flow and one for the reference compound (Agilent Technologies, Santa Clara, USA). The ESI source was operated in negative mode with the following settings: gas temp of 300° C. with a flow of 8 L/min and nebulizer set to 35 psig. VCap set to 3000 V, the fragmentor to −140 V and the skimmer to 65 V. Scan mode of the mass detector was applied (100-1700 m/z) with a rate of 1 spectra/sec. The [M-H] ions of target compounds were detected using the ‘find compound by formula’ function and analyzed by Masshunter qualitative and quantitative analysis software version B.07.00 (Agilent technologies). Compounds were identified by comparison of exact mass and retention time to purchased standards.

MdPGT1 = MdPGT1 (Malus domestica, UniProt B3TKC8); details: Jugde et al. (2008)
MdPh-4′-OGT [3] = target: T1, MdPh-4′-OGT; assay: pH and temperature optima of MdPh-4′-OGT activity with phloretin and UDP-glucose; assay type: biochemical, Malus x domestica
Procedure: as §1
All data included represent an average of at least three independent experiments. Determination of the pH optima within the range of 4.0-10.0 by mixing the stock buffer of 0.5 M citric acid and 1 M dibasic sodium phosphate solutions (for pH 4.0-7.0) and Tris-HCl (for pH 8.0-10.0), and the temperature optima within the range of 20° C.-45° C.

Molecule: O=C(O)/C=C/c1ccc(O)cc1 [4-coumaric acid]
- Activity / product formation with the compound as acceptor substrate (MdPh-4′-OGT [1]): no products were detected

Molecule: O=C(CCc1ccc(O)cc1)c1c(O)cc(O)cc1O [Phloretin, 3-(4-hydroxyphenyl)-1-(2,4,6-trihydroxyphenyl)-1-propanone]
- Km for phloretin, times higher than with MdPh-4′-OGT (Malus Ph-2′-OGT): 3 times
- kcat (MdPh-4′-OGT [2]; named substrate varied, co-substrate fixed): 9.94 ± 1.23 s^−1 (×10^−2)
- Vmax (MdPh-4′-OGT [2]; named substrate varied, co-substrate fixed, 500 ng enzyme): 1.86 ± 0.30 pkat μg^−1 protein
- Vmax (MdPh-4′-OGT [2]; named substrate varied, co-substrate fixed, 500 ng enzyme, listed as phloretin): 1.86±0.30 pkat μg^−1 protein
- Km (MdPh-4′-OGT [2]; named substrate varied: phloretin 0.5-500 μM at 2 mM UDP-glucose, UDP-glucose 0.01-50 mM at 30 μM phloretin, 500 ng enzyme): 26.1 ± 6.97 µM
- Activity / product formation with the compound as acceptor substrate (MdPh-4′-OGT [1]): highest activity
- Km for phloretin, times lower than with MdPh-4′-OGT (MdPGT1): 41 times

Molecule: O=C(/C=C/c1ccc(O)c(O)c1)c1ccc(O)cc1O [butein]
- Activity / product formation with the compound as acceptor substrate (MdPh-4′-OGT [1]): production of the corresponding O-glucoside

Molecule: O=C(O)/C=C/c1ccc(O)c(O)c1 [caffeic acid]
- Activity / product formation with the compound as acceptor substrate (MdPh-4′-OGT [1]): no products were detected

Molecule: O=C1C[C@@H](c2ccc(O)cc2)Oc2cc(O)cc(O)c21 [naringenin]
- Activity / product formation with the compound as acceptor substrate (MdPh-4′-OGT [1]): formation of the corresponding naringenin-7-O-glucoside

Molecule: O=c1c(O)c(-c2ccc(O)c(O)c2)oc2cc(O)cc(O)c12 [quercetin]
- Activity / product formation with the compound as acceptor substrate (MdPh-4′-OGT [1]): production of three different products

Molecule: O=C(CCc1ccc(O)cc1)c1c(O)cc(O[C@@H]2O[C@H](CO)[C@@H](O)[C@H](O)[C@H]2O)cc1O [trilobatin, 1-Propanone, 1-(4-(beta-D-glucopyranosyloxy)-2,6-dihydroxyphenyl)-3-(4-hydroxyphenyl)]
- Activity / product formation with the compound as acceptor substrate (MdPh-4′-OGT [1]): production of the corresponding di-O-glucosides

B1: MdPh-4′-OGT: His-tagged recombinant apple glycosyltransferase that glycosylates phloretin with UDP-glucose to form trilobatin (protein, listed as Malus domestica)
chain: T1 sequence (A7MAS5 1-481)
modifications: His tag
notes: His-tagged recombinant apple glycosyltransferase that glycosylates phloretin with UDP-glucose to form trilobatin
- Activation energy (MdPh-4′-OGT [3]; calculated from temperature dependence): 4.369 kcal/mol
- Activity remaining at pH 6.0 (MdPh-4′-OGT [3]; pH 6.0): 17%
- Activity remaining at pH 10.0 (MdPh-4′-OGT [3]; pH 10.0): less than 5%
- pH of maximum activity (MdPh-4′-OGT [3]; pH range 4.0-10.0 tested): 9.0 pH
- pH range of significant activity (MdPh-4′-OGT [3]; pH range 4.0-10.0 tested): 7.0-9.0 pH
